From publication PMC4940736 (Scientific Reports, 2016)
“And” between values parts separate entries of the source, which are not always exact repeats. Equal entries are not always repeated.

Assays:
[1] = molecular target: T1, EBOV NP (amino acids 36–351) (Zaire ebolavirus, UniProt P18272); assay type: binding, Ebola virus
[2] = molecular target: T2, MARV NP (amino acids 19–370) (Lake Victoria marburgvirus, UniProt P27588); assay type: binding, Marburg virus
[3] = molecular target: T2, MARV NP (amino acids 19–370); assay type: binding, Marburg virus; remark: listed apart in the source
[4] = molecular target: T1, EBOV NP (amino acids 36–351); assay type: binding, Ebola virus; remark: listed apart in the source
EBOV NP [5] = molecular target: T3, EBOV NP (Zaire ebolavirus, UniProt P18272); assay type: binding, Ebola virus
EBOV NP [6] = molecular target: T3, EBOV NP; assay type: binding, Ebola virus; remark: listed apart in the source
MARV NP [7] = molecular target: T4, MARV NP (Lake Victoria marburgvirus, UniProt P27588); assay type: binding, Marburg virus
MARV NP [8] = molecular target: T4, MARV NP; assay type: binding, Marburg virus; remark: listed apart in the source
[9] = molecular target: MARV NP (residues 19–370) (Lake Victoria marburgvirus, UniProt P27588); assay type: biochemical, Marburg virus
[10] = molecular target: EBOV NP (residues 36–351) (Zaire ebolavirus, UniProt P18272); assay type: biochemical, Ebola virus
[11] = molecular target: T2, MARV NP (amino acids 19–370); assay type: binding, Marburg virus; remark: listed apart in the source
[12] = molecular target: T1, EBOV NP (amino acids 36–351); assay type: binding, Ebola virus; remark: listed apart in the source
[13] = molecular target: oligomeric EBOV NP 36–450 / ssRNA (Zaire ebolavirus, UniProt P18272); experiment: biochemical
SEC-MALS = molecular target: the molecule itself; experiment: SEC-MALS
SEC = molecular target: the molecule itself; experiment: SEC

COc1ccc(-c2coc3cc(O)ccc3c2=O)cc1O [GC9, Calycosin]
S/N ratio (peak intensity protein incubation sample vs control) [1]: 1.21±0.25
S/N ratio (peak intensity protein incubation sample vs control) [2]: 1.60±0.36

Liquiritin apioside [GC1]
S/N ratio (peak intensity protein incubation sample vs control) [1]: 1.37±0.28
S/N AVE [3]: 1.53
VIP [3]: 5.68
S/N AVE [4]: 1.07
VIP [4]: 2.03
Corr response (SPR) (EBOV NP [5]): 3.1 RU
△Tm (EBOV NP [6]): −0.5 ± 0.2 °C
S/N ratio (peak intensity protein incubation sample vs control) [2]: 1.85±0.35
△Tm (MARV NP [7]): −0.2 ± 0.3 °C
Corr response (SPR) (MARV NP [8]): 2.0 RU

O=C(/C=C/c1ccc(O)cc1)c1ccc(O)cc1O [GC11, Isoliquiritigenin]
S/N ratio (peak intensity protein incubation sample vs control) [1]: 1.11±0.16
S/N ratio (peak intensity protein incubation sample vs control) [2]: 1.08±0.04

O=c1cc(-c2ccc(O)cc2)oc2c([C@@H]3OC[C@H](O)[C@H](O)[C@H]3O)c(O)c([C@@H]3O[C@H](CO)[C@@H](O)[C@H](O)[C@H]3O)c(O)c12 [GC3, Schaftoside]
S/N ratio (peak intensity protein incubation sample vs control) [1]: 1.47±0.30
Corr response (SPR) (EBOV NP [5]): 2.9 RU
△Tm (EBOV NP [6]): −0.6 ± 0.1 °C
S/N ratio (peak intensity protein incubation sample vs control) [2]: 1.67±0.31
△Tm (MARV NP [7]): −0.4 ± 0.3 °C
Corr response (SPR) (MARV NP [8]): 2.8 RU

O=C(/C=C/c1ccc(O)cc1)c1ccc(O[C@@H]2O[C@H](CO)[C@@H](O)[C@H](O)[C@H]2O)cc1O [GC4, Neoisoliquiritin]
S/N ratio (peak intensity protein incubation sample vs control) [1]: 1.46±0.29
△Tm (EBOV NP [6]): 0.1 ± 0.2 °C
S/N ratio (peak intensity protein incubation sample vs control) [2]: 1.59±0.41
△Tm (MARV NP [7]): 0.2 ± 0.3 °C

O=C1C[C@@H](c2ccc(O)cc2)Oc2cc(O)ccc21 [GC8, Liquiritigenin]
S/N ratio (peak intensity protein incubation sample vs control) [1]: 0.96±0.22
S/N ratio (peak intensity protein incubation sample vs control) [2]: 1.28±0.18

O=C1C[C@@H](c2ccc(O)cc2)Oc2cc(O[C@@H]3O[C@H](CO)[C@@H](O)[C@H](O)[C@H]3O)ccc21 [GC2, Neoliquiritin]
S/N ratio (peak intensity protein incubation sample vs control) [1]: 1.31±0.27
Monomer (%) [9]: 66.3%
Oligomer(%) >1000 kDa [9]: 4.0%
Tetramer (%) [9]: 29.7%
Corr response (SPR) (EBOV NP [5]): 2.0 RU
△Tm (EBOV NP [6]): 0.0 ± 0.0 °C
Monomer (%) [10]: 100%
S/N ratio (peak intensity protein incubation sample vs control) [2]: 1.87±0.38
△Tm (MARV NP [7]): 0.2 ± 0.3 °C
Corr response (SPR) (MARV NP [8]): 1.1 RU

C=CC(C)(C)c1cc(/C=C/C(=O)c2ccc(O)cc2)c(OC)cc1O [GC13, Licochalcone A]
S/N ratio (peak intensity protein incubation sample vs control) [1]: 5.61±1.11
Monomer (%) [9]: 29.0%
Oligomer(%) >1000 kDa [9]: 2.6%
Tetramer (%) [9]: 68.3%
increase of tetramer formation [9]: > 2 fold
BF% (fraction of compound associated with the NP protein) [11]: 0.1% ± 0.1%
S/N [11]: 11.0 ± 1.9
Corr response (SPR) (EBOV NP [5]): 43.8 RU
△Tm (EBOV NP [6]): −3.2 ± 0.3 °C
Monomer (%) [10]: 100%
S/N ratio (peak intensity protein incubation sample vs control) [2]: 6.54±0.52
△Tm (MARV NP [7]): 0.7 ± 0.6 °C
Corr response (SPR) (MARV NP [8]): 29.2 RU
BF% (fraction of compound associated with the NP protein) [12]: 0.3% ± 0.0%
S/N [12]: 6.0 ± 1.3

O=C1C[C@@H](c2ccc(O[C@@H]3O[C@H](CO)[C@@H](O)[C@H](O)[C@H]3O)cc2)Oc2cc(O)ccc21 [GC12, Liquiritin]
S/N ratio (peak intensity protein incubation sample vs control) [1]: 1.31±0.27
S/N ratio (peak intensity protein incubation sample vs control) [2]: 1.87±0.38

CC1(C)[C@@H](O[C@H]2O[C@H](C(=O)O)[C@@H](O)[C@H](O)[C@H]2O[C@@H]2O[C@H](C(=O)O)[C@@H](O)[C@H](O)[C@H]2O)CC[C@]2(C)[C@H]3C(=O)C=C4[C@@H]5C[C@@](C)(C(=O)O)CC[C@]5(C)CC[C@@]4(C)[C@]3(C)CC[C@@H]12 [GC6, Glycyrrhizin]
S/N ratio (peak intensity protein incubation sample vs control) [1]: 1.84±0.12
△Tm (EBOV NP [6]): 0.1 ± 0.2 °C
S/N ratio (peak intensity protein incubation sample vs control) [2]: 1.46±0.73
△Tm (MARV NP [7]): −0.2 ± 0.3 °C

O=C(/C=C/c1ccc(O[C@@H]2O[C@H](CO)[C@@H](O)[C@H](O)[C@H]2O)cc1)c1ccc(O)cc1O [GC14, Isoliquiritin]
S/N ratio (peak intensity protein incubation sample vs control) [1]: 0.49±0.02
S/N ratio (peak intensity protein incubation sample vs control) [2]: 1.61±0.19

CC1(C)[C@@H](O)CC[C@]2(C)[C@H]3C(=O)C=C4[C@H]5C[C@@](C)(C(=O)O)CC[C@]5(C)CC[C@@]4(C)[C@]3(C)CC[C@@H]12 [GC10, 18α-Glycyrrhetinic acid]
S/N ratio (peak intensity protein incubation sample vs control) [1]: 2.62±0.46
Monomer (%) [9]: 63.3%
Oligomer(%) >1000 kDa [9]: 0.5%
Tetramer (%) [9]: 36.2%
BF% (fraction of compound associated with the NP protein) [11]: 0.9% ± 0.5%
S/N [11]: 1.8 ± 0.1
Corr response (SPR) (EBOV NP [5]): 8.8 RU
△Tm (EBOV NP [6]): −0.8 ± 0.4 °C
Monomer (%) [10]: 64.0%
Oligomer(%) >1000 kDa [10]: 36.0%
S/N ratio (peak intensity protein incubation sample vs control) [2]: 2.79±0.34
△Tm (MARV NP [7]): −0.2 ± 0.3 °C
Corr response (SPR) (MARV NP [8]): 5.2 RU
BF% (fraction of compound associated with the NP protein) [12]: 0.1% ± 0.0%
S/N [12]: 1.2 ± 0.1

COc1ccc(-c2coc3cc(O[C@@H]4O[C@H](CO)[C@@H](O)[C@H](O)[C@H]4O)ccc3c2=O)cc1 [GC5, Ononin]
S/N ratio (peak intensity protein incubation sample vs control) [1]: 1.34±0.31
△Tm (EBOV NP [6]): −0.2 ± 0.3 °C
S/N ratio (peak intensity protein incubation sample vs control) [2]: 1.18±0.43
△Tm (MARV NP [7]): 0.0 ± 0.5 °C

CC1(C(=O)O)CCC2(C)CCC3(C)C(=CC(=O)C4C5(C)CCC(O)C(C)(C)C5CCC43C)C2C1 (stereo not drawn) [GC7, 18β-Glycyrrhetinic acid]
S/N ratio (peak intensity protein incubation sample vs control) [1]: 2.62±0.46
Monomer (%) [9]: 71.0% and 84.5%
Oligomer(%) >1000 kDa [9]: 6.2% and 6.9%
BF% (fraction of compound associated with the NP protein) [11]: 16.9% ± 4.1%
S/N [11]: 2.3 ± 0.4
Corr response (SPR) (EBOV NP [5]): 128 RU
decrease of the protein melting temperature (EBOV NP [6]): 9 °C
△Tm (EBOV NP [6]): −9.2 ± 0.4 °C
IC50 [13]: ~160 µM
Oligomer(%) <1000 kDa [10]: 68.7%
S/N ratio (peak intensity protein incubation sample vs control) [2]: 2.79±0.34
△Tm (MARV NP [7]): −1.1 ± 0.1 °C
Corr response (SPR) (MARV NP [8]): 35.8 RU
BF% (fraction of compound associated with the NP protein) [12]: 11.0% ± 1.1%
S/N [12]: 2.7 ± 0.3

B1: Marburg virus nucleoprotein core domain (MARV NP, amino acids 19-370) (domain or fragment)
chain: RNKKVILFDTNHQVSICNQIIDAINSGIDLGDLLEGGLLTLCVEHYYNSDKDKFNTSPVAKYLRDAGYEFDVIKNADATRFLDVSPNEPHYSPLILALKTLESTESQRGRIGLFLSFCSLFLPKLVVGDRASIEKALRQVTVHQEQGIVTYPNHWLTTGHMKVIFGILRSSFILKFVLIHQGVNLVTGHDAYDSIISNSVGQTRFSGLLIVKTVLEFILQKTDSGVTLHPLVRTSKVKNEVASFKQALSNLARHGEYAPFARVLNLSGINNLEHGLYPQLSAIALGVATAHGSTLAGVNVGEQYQQLREAAHDAEVKLQRRHEHQEIQAIAEDDEERKILEQFHLQKTEITH
stoichiometry N (SEC-MALS): 4

B2: Ebola virus nucleoprotein, residues 36-450 (EBOV NP 36-450) (domain or fragment)
chain: VRQRVIPVYQVNNLEEICQLIIQAFEAGVDFQESADSFLLMLCLHHAYQGDYKLFLESGAVKYLEGHGFRFEVKKRDGVKRLEELLPAVSSGKNIKRTLAAMPEEETTEANAGQFLSFASLFLPKLVVGEKACLEKVQRQIQVHAEQGLIQYPTAWQSVGHMMVIFRLMRTNFLIKFLLIHQGMHMVAGHDANDAVISNSVAQARFSGLLIVKTVLDHILQKTERGVRLHPLARTAKVKNEVNSFKAALSSLAKHGEYAPFARLLNLSGVNNLEHGLFPQLSAIALGVATAHGSTLAGVNVGEQYQQLREAATEAEKQLQQYAESRELDHLGLDDQEKKILMNFHQKKNEISFQQTNAMVTLRKERLAKLTEAITAASLPKTSGHYDDDDDIPFPGPINDDDNPGHQDDDPTDSQ
binding result (SEC): binds
